Assay results published in PubChem BioAssay AID2060500 (Molecular Pharmacology Branch, DTP, NCI, 2025).

Tested on: 596521-263-R-J1-PDC complex spheroids, viability % of control
Assay: Anticancer human tumor 596521-263-R-J1-PDC patient-derived soft tissue sarcoma cell line growth inhibition [GQUAD]
Settings: for IC50: curve of first compound; for viability, T/C: stronger effect = lower value
Description: DNA G-quadruplex Stabilizer Agents in Combinations in Complex Spheroids
A high-throughput screen of multi-cell type tumor spheroids was designed to identify active combinations of DNA G-quadruplex stabilizer agents and targeted small molecules. Complex spheroids include a stromal component modeled by human endothelial cells (HUVEC) and fibroblasts modeled by human mesenchymal stem cells (MSCs). The concentration ranges selected for each drug and investigational agent were based upon clinically achievable concentrations if the clinical Cmax of the agent was known.
Compounds. The drugs and investigational agents: pidnarulex (CX-5461; NSC782164), APTO-253 (NSC789042), BRACO-19 (NSC847499), peposertib (NSC802822), ceralasertib (NSC780249), elimusertib (NSC800525), camonsertib (NSC841442), AZD-1390 (NSC803789), olaparib (NSC753686), talazoparib (NSC767125), ART-558 (NSC835418), sotorasib (NSC818433), MRTX-1133 (NSC836407), SN-38 (NSC673596), topotecan (NSC609699), etoposide (NSC141540), doxorubicin (NSC123127), gemcitabine (NSC613327), 5-fluorouracil (NSC19893), paclitaxel (NSC125973), vemurafenib (NSC761431), panobinostat (NSC761190), R-306465 (JNJ-16241199; NSC773264), adavosertib (NSC754352), TP-3654 (NSC805149), carboplatin (NSC241240), KSQ-4279 (NSC840948), and staurosporine (NSC755774) were obtained from the National Cancer Institute (NCI) Developmental Therapeutics Program Chemical Repository (34). The FDA-approved anticancer drug set is available from the NCI Developmental Therapeutics Program. […] The stock solutions were prepared in dimethyl sulfoxide (DMSO, Sigma-Aldrich, St. Louis, MO, cat. D2650) at 800-fold the tested concentration and stored at -70 degrees C prior to their use. All drugs and investigational agents were tested over a range starting from a high concentration at or near the clinical Cmax and decreasing in half-log increments. If the clinical Cmax for an agent had not been determined, the highest concentration tested was 10 microM.
2.3 Cell Culture. All cells were maintained in an incubator at 37 degrees C and 5% CO2 with 95% humidity. The PDC lines were cultured according to standard operating procedures established by the NCI PDMR. All PDCs were thawed and cultured in Matrigel-coated flasks prepared with a working solution of 1X Ham's F-12 nutrient mix, without supplementation (Invitrogen, cat. 11765054), 100 U/mL penicillin-streptomycin (Invitrogen, cat. 15140122), and 2.5% Matrigel (Corning Inc., cat. 354248) for the first three passages. The 857933-349-R-J2-PDC line was cultured in 6C/Colon 1B media, which includes advanced DMEM/F-12 (Thermo Fisher Scientific, cat. 12634028), 10 mM HEPES (Thermo Fisher Scientific, cat. 15630080), 1X GlutaMAX supplement (Thermo Fisher Scientific, cat. 35050061), 0.1 mg/mL primocin (InvivoGen, cat. ant-pm-2), 10% defined fetal bovine serum, heat inactivated (HyClone Laboratories Inc., cat. SH30070.03HI), 50% L-WRN conditioned media (ATCC, cat. CRL-3276), 1.25 mM N-Acetyl-L-cysteine (Sigma-Aldrich, cat. A9165), 10 mM nicotinamide (Sigma-Aldrich, cat. N0636), 1X B-27 supplement (Thermo Fisher Scientific, cat. 17504044), 1X N-2 supplement (Thermo Fisher Scientific, cat. 17502048), 10 microM Y-27632 dihydrochloride (Tocris Bioscience, cat. 1254), and 50 ng/mL human EGF recombinant protein (Thermo Fisher Scientific, cat. PHG0311). The 485176-168-R4-J1-PDC line was cultured in Panc media, which includes all 6C/Colon 1B media components plus 100 ng/mL human FGF-10 (Thermo Fisher Scientific, cat. 100-26), 500 nM SB-431542 (Selleckchem, cat. S1067), and gastrin (Tocris, cat. 3006).
[…]

[1] = second compound 0.0316 µM, first compound 0.0316 µM
[2] = second compound 0.0316 µM, first compound 0.1 µM
[3] = second compound 0.0316 µM, first compound 0.316 µM
[4] = second compound 0.0316 µM, first compound 1 µM
[5] = second compound 0.0316 µM, first compound 3.16 µM
[6] = second compound 0.0316 µM, first compound 10 µM
[7] = second compound 0.1 µM, first compound 0.0316 µM
[8] = second compound 0.1 µM, first compound 0.1 µM
[9] = second compound 0.1 µM, first compound 0.316 µM
[10] = second compound 0.1 µM, first compound 1 µM
[11] = second compound 0.1 µM, first compound 3.16 µM
[12] = second compound 0.1 µM, first compound 10 µM
[13] = second compound 0.316 µM, first compound 0.0316 µM
[14] = second compound 0.316 µM, first compound 0.1 µM
[15] = second compound 0.316 µM, first compound 0.316 µM
[16] = second compound 0.316 µM, first compound 1 µM
[17] = second compound 0.316 µM, first compound 3.16 µM
[18] = second compound 0.316 µM, first compound 10 µM
[19] = second compound 1 µM, first compound 0.0316 µM
[20] = second compound 1 µM, first compound 0.1 µM
[21] = second compound 1 µM, first compound 0.316 µM
[22] = second compound 1 µM, first compound 1 µM
[23] = second compound 1 µM, first compound 3.16 µM
[24] = second compound 1 µM, first compound 10 µM
[25] = second compound 3.16 µM, first compound 0.0316 µM
[26] = second compound 3.16 µM, first compound 0.1 µM
[27] = second compound 3.16 µM, first compound 0.316 µM
[28] = second compound 3.16 µM, first compound 1 µM
[29] = second compound 3.16 µM, first compound 3.16 µM
[30] = second compound 3.16 µM, first compound 10 µM
[31] = second compound 10 µM, first compound 0.0316 µM
[32] = second compound 10 µM, first compound 0.1 µM
[33] = second compound 10 µM, first compound 0.316 µM
[34] = second compound 10 µM, first compound 1 µM
[35] = second compound 10 µM, first compound 3.16 µM
[36] = second compound 10 µM, first compound 10 µM
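Note: spheroids exposed to drugs for 7 days before viability reading.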

CC(C)n1c(=O)n(C)c2cnc3cc(F)c(-c4ccc(OCCCN5CCCCC5)nc4)cc3c21 + CN(C)c1ccc(Nc2c3ccc(NC(=O)CCN4CCCC4)cc3nc3cc(NC(=O)CCN4CCCC4)ccc23)cc1
IC50 (second compound 0.0316 µM): > 10 µM
IC50 (second compound 0.1 µM): > 10 µM
IC50 (second compound 0.316 µM): > 10 µM
IC50 (second compound 1 µM): > 10 µM
IC50 (second compound 3.16 µM): > 10 µM
IC50 (second compound 10 µM): 0.899 µM
viability, T/C [1]: 104%
viability, T/C [2]: 103%
viability, T/C [3]: 100%
viability, T/C [4]: 87.1%
viability, T/C [5]: 84.1%
viability, T/C [6]: 66.8%
viability, T/C [7]: 104%
viability, T/C [8]: 106%
viability, T/C [9]: 91.8%
viability, T/C [10]: 95.7%
viability, T/C [11]: 92.4%
viability, T/C [12]: 63.5%
viability, T/C [13]: 111%
viability, T/C [14]: 96.8%
viability, T/C [15]: 103%
viability, T/C [16]: 89.8%
viability, T/C [17]: 84.7%
viability, T/C [18]: 64.9%
viability, T/C [19]: 99.8%
viability, T/C [20]: 112%
viability, T/C [21]: 100%
viability, T/C [22]: 98.5%
viability, T/C [23]: 96.9%
viability, T/C [24]: 73.6%
viability, T/C [25]: 90.7%
viability, T/C [26]: 98%
viability, T/C [27]: 91.2%
viability, T/C [28]: 80.7%
viability, T/C [29]: 77%
viability, T/C [30]: 59.6%
viability, T/C [31]: 70%
viability, T/C [32]: 60.7%
viability, T/C [33]: 57.4%
viability, T/C [34]: 48.4%
viability, T/C [35]: 43.6%
viability, T/C [36]: 31.5%

CC1COCCN1c1cc(-c2ccnn2C)c2ccnc(-c3ccn[nH]3)c2n1 (stereo not drawn) + CN(C)c1ccc(Nc2c3ccc(NC(=O)CCN4CCCC4)cc3nc3cc(NC(=O)CCN4CCCC4)ccc23)cc1
IC50 (second compound 0.0316 µM): 0.206 µM
IC50 (second compound 0.1 µM): 0.301 µM
IC50 (second compound 0.316 µM): 0.366 µM
IC50 (second compound 1 µM): 0.449 µM
IC50 (second compound 3.16 µM): 0.348 µM
IC50 (second compound 10 µM): 0.161 µM
viability, T/C [1]: 69.3%
viability, T/C [2]: 53.7%
viability, T/C [3]: 44.4%
viability, T/C [4]: 41.3%
viability, T/C [5]: 29.4%
viability, T/C [6]: 22.8%
viability, T/C [7]: 81%
viability, T/C [8]: 59.2%
viability, T/C [9]: 49.5%
viability, T/C [10]: 39.2%
viability, T/C [11]: 30.9%
viability, T/C [12]: 21.3%
viability, T/C [13]: 65.6%
viability, T/C [14]: 63.4%
viability, T/C [15]: 49.9%
viability, T/C [16]: 39.3%
viability, T/C [17]: 30.4%
viability, T/C [18]: 21.9%
viability, T/C [19]: 66.2%
viability, T/C [20]: 63.6%
viability, T/C [21]: 50.2%
viability, T/C [22]: 45.4%
viability, T/C [23]: 30.6%
viability, T/C [24]: 25%
viability, T/C [25]: 69.4%
viability, T/C [26]: 59.4%
viability, T/C [27]: 49.8%
viability, T/C [28]: 43.6%
viability, T/C [29]: 31.1%
viability, T/C [30]: 22.9%
viability, T/C [31]: 55.6%
viability, T/C [32]: 54.8%
viability, T/C [33]: 44.4%
viability, T/C [34]: 35.5%
viability, T/C [35]: 26.6%
viability, T/C [36]: 21.9%

CC1COCCN1c1cc(C2(S(C)(=N)=O)CC2)nc(-c2ccnc3[nH]ccc23)n1 (stereo not drawn) + CN(C)c1ccc(Nc2c3ccc(NC(=O)CCN4CCCC4)cc3nc3cc(NC(=O)CCN4CCCC4)ccc23)cc1
IC50 (second compound 0.0316 µM): > 10 µM
IC50 (second compound 0.1 µM): 9.59 µM
IC50 (second compound 0.316 µM): > 10 µM
IC50 (second compound 1 µM): > 10 µM
IC50 (second compound 3.16 µM): > 10 µM
IC50 (second compound 10 µM): 4.38 µM
viability, T/C [1]: 93.1%
viability, T/C [2]: 97.1%
viability, T/C [3]: 86.9%
viability, T/C [4]: 77.9%
viability, T/C [5]: 62.9%
viability, T/C [6]: 52.3%
viability, T/C [7]: 97.5%
viability, T/C [8]: 97.7%
viability, T/C [9]: 95.1%
viability, T/C [10]: 71.5%
viability, T/C [11]: 64.8%
viability, T/C [12]: 48%
viability, T/C [13]: 96.6%
viability, T/C [14]: 90.8%
viability, T/C [15]: 87.3%
viability, T/C [16]: 85.1%
viability, T/C [17]: 54.2%
viability, T/C [18]: 51.2%
viability, T/C [19]: 90.4%
viability, T/C [20]: 103%
viability, T/C [21]: 94.1%
viability, T/C [22]: 76.4%
viability, T/C [23]: 64.3%
viability, T/C [24]: 57.3%
viability, T/C [25]: 94.5%
viability, T/C [26]: 83.1%
viability, T/C [27]: 78.2%
viability, T/C [28]: 80%
viability, T/C [29]: 61.4%
viability, T/C [30]: 50%
viability, T/C [31]: 66.8%
viability, T/C [32]: 67.1%
viability, T/C [33]: 65.6%
viability, T/C [34]: 52.8%
viability, T/C [35]: 53.8%
viability, T/C [36]: 44.9%

COc1ccc([C@@H](O)c2cc(-c3ncnc4cc(N5CCOCC5)ccc34)c(F)cc2Cl)nn1 + CN(C)c1ccc(Nc2c3ccc(NC(=O)CCN4CCCC4)cc3nc3cc(NC(=O)CCN4CCCC4)ccc23)cc1
IC50 (second compound 0.0316 µM): 7.69 µM
IC50 (second compound 0.1 µM): 9.12 µM
IC50 (second compound 0.316 µM): > 10 µM
IC50 (second compound 1 µM): 7.49 µM
IC50 (second compound 3.16 µM): > 10 µM
IC50 (second compound 10 µM): 1.16 µM
viability, T/C [1]: 95.1%
viability, T/C [2]: 91.2%
viability, T/C [3]: 97.5%
viability, T/C [4]: 88.4%
viability, T/C [5]: 67.7%
viability, T/C [6]: 44.8%
viability, T/C [7]: 89.5%
viability, T/C [8]: 101%
viability, T/C [9]: 91.9%
viability, T/C [10]: 77.1%
viability, T/C [11]: 65.6%
viability, T/C [12]: 48.1%
viability, T/C [13]: 96.1%
viability, T/C [14]: 94.2%
viability, T/C [15]: 81.1%
viability, T/C [16]: 81.8%
viability, T/C [17]: 64.1%
viability, T/C [18]: 51.8%
viability, T/C [19]: 93.8%
viability, T/C [20]: 84.3%
viability, T/C [21]: 93.9%
viability, T/C [22]: 83.4%
viability, T/C [23]: 63.2%
viability, T/C [24]: 45.6%
viability, T/C [25]: 87.4%
viability, T/C [26]: 87.5%
viability, T/C [27]: 84.7%
viability, T/C [28]: 66.1%
viability, T/C [29]: 64.1%
viability, T/C [30]: 49.5%
viability, T/C [31]: 70.5%
viability, T/C [32]: 56.7%
viability, T/C [33]: 59.1%
viability, T/C [34]: 48.4%
viability, T/C [35]: 49.4%
viability, T/C [36]: 31.6%
